Laboratory results taken from ChEMBL document CHEMBL1151441, “Antimicrobial susceptibilities and clinical sources of Dialister species” (2007).
≈ marks a conversion by molar mass, not a printed value.

Columns and labels:
Type in all cases: functional
[1] = system: Dialister pneumosintes; experiment: Antimicrobial activity against Dialister pneumosintes by agar dilution method
[2] = system: Dialister micraerophilus; experiment: Antimicrobial activity against Dialister micraerophilus by agar dilution method
[3] = system: Dialister propionicifaciens; experiment: Antimicrobial activity against Dialister propionicifaciens assessed as susceptibility breakpoint by CA-SFM method
[4] = system: Dialister pneumosintes; experiment: Antimicrobial activity against Dialister pneumosintes assessed as susceptibility breakpoint by CA-SFM method
[5] = system: Dialister invisus; experiment: Antimicrobial activity against Dialister invisus assessed as susceptibility breakpoint by CA-SFM method
[6] = system: Dialister propionicifaciens; experiment: Antimicrobial activity against Dialister propionicifaciens by agar dilution method
[7] = system: Dialister micraerophilus; experiment: Antimicrobial activity against Dialister micraerophilus assessed as susceptibility breakpoint by CA-SFM method
[8] = system: Dialister pneumosintes; experiment: Antimicrobial activity against Dialister pneumosintes assessed as susceptibility breakpoint by CLSI method
[9] = system: Dialister micraerophilus; experiment: Antimicrobial activity against Dialister micraerophilus assessed as susceptibility breakpoint by CLSI method
[10] = system: Dialister invisus; experiment: Antimicrobial activity against Dialister invisus assessed as susceptibility breakpoint by CLSI method
[11] = system: Dialister invisus; experiment: Antimicrobial activity against Dialister invisus by agar dilution method
[12] = system: Dialister propionicifaciens; experiment: Antimicrobial activity against Dialister propionicifaciens assessed as susceptibility breakpoint by CLSI method

SMILES	MIC [1] [µg/mL]	MIC50 [1] [µg/mL]	MIC90 [1] [µg/mL]	MIC [2] [µg/mL]	MIC [6] [µg/mL]	MIC50 [2] [µg/mL]	MIC90 [2] [µg/mL]	MIC [11] [µg/mL]	Activity [3]	Activity [4]	Activity [5]	Activity [7]	Activity [8]	Activity [9]	Activity [10]	Activity [12]
C[C@@H](O)[C@H]1C(=O)N2C(C(=O)O)=C(S[C@@H]3CN[C@H](C(=O)Nc4cccc(C(=O)O)c4)C3)[C@H](C)[C@H]12	0.125 (≈ 0.263 µM)	0.125 (≈ 0.263 µM)	0.125 (≈ 0.263 µM)	0.125 (≈ 0.263 µM)	0.125 (≈ 0.263 µM)				<=4 ug ml-1	<=4 ug ml-1	<=4 ug ml-1	<=4 ug ml-1	<=4 ug ml-1	<=4 ug ml-1	<=4 ug ml-1	<=4 ug ml-1
C[C@H]1COc2c(N3CCN(C)CC3)c(F)cc3c(=O)c(C(=O)O)cn1c23.C[C@H]1COc2c(N3CCN(C)CC3)c(F)cc3c(=O)c(C(=O)O)cn1c23.O [LEVOFLOXACIN]	0.25	0.25	0.5	0.25	0.25				<=1 ug ml-1	<=1 ug ml-1	<=1 ug ml-1	<=1 ug ml-1				
CO[C@@]1(NC(=O)Cc2cccs2)C(=O)N2C(C(=O)O)=C(COC(N)=O)CS[C@@H]21 [CEFOXITIN]	0.5 (≈ 1.17 µM)	0.5 (≈ 1.17 µM)	1 (≈ 2.34 µM)	0.5 (≈ 1.17 µM)	0.5 (≈ 1.17 µM)	0.5 (≈ 1.17 µM)	0.5 (≈ 1.17 µM)	0.5 (≈ 1.17 µM)	<=8 ug ml-1	<=8 ug ml-1	<=8 ug ml-1	<=8 ug ml-1	<=16 ug ml-1	<=16 ug ml-1	<=16 ug ml-1	<=16 ug ml-1
O=C(N[C@H](CO)[C@H](O)c1ccc([N+](=O)[O-])cc1)C(Cl)Cl [CHLORAMPHENICOL]	0.25 (≈ 0.774 µM)	0.25 (≈ 0.774 µM)	0.5 (≈ 1.55 µM)	0.25 (≈ 0.774 µM)	0.25 (≈ 0.774 µM)	0.25 (≈ 0.774 µM)	1 (≈ 3.09 µM)	0.25 (≈ 0.774 µM)	<=8 ug ml-1	<=8 ug ml-1	<=8 ug ml-1	<=8 ug ml-1	<=8 ug ml-1	<=8 ug ml-1	<=8 ug ml-1	<=8 ug ml-1
CCC[C@@H]1C[C@@H](C(=O)N[C@@H]([C@H]2O[C@H](SC)[C@H](O)[C@@H](O)[C@H]2O)[C@H](C)Cl)N(C)C1 [CLINDAMYCIN]	0.125 (≈ 0.294 µM)	0.125 (≈ 0.294 µM)	0.125 (≈ 0.294 µM)	0.125 (≈ 0.294 µM)	0.125 (≈ 0.294 µM)	0.125 (≈ 0.294 µM)	0.125 (≈ 0.294 µM)	0.125 (≈ 0.294 µM)	<=2 ug ml-1	<=2 ug ml-1	<=2 ug ml-1	<=2 ug ml-1	<=2 ug ml-1	<=2 ug ml-1	<=2 ug ml-1	<=2 ug ml-1
CO[C@H]1/C=C/O[C@@]2(C)Oc3c(C)c(O)c4c(O)c(c(/C=N/N5CCN(C)CC5)c(O)c4c3C2=O)NC(=O)/C(C)=C\C=C\[C@H](C)[C@H](O)[C@@H](C)[C@@H](O)[C@@H](C)[C@H](OC(C)=O)[C@@H]1C [RIFAMPIN]	≤ 0.06	2 (≈ 2.43 µM)	4 (≈ 4.86 µM)	≤ 0.06	≤ 0.06	≤ 0.06	≤ 0.06	≤ 0.06	<=2 ug ml-1	<=2 ug ml-1	<=2 ug ml-1	<=2 ug ml-1				
O=C(O)c1cn(C2CC2)c2cc(N3CCNCC3)c(F)cc2c1=O [CIPROFLOXACIN]	≤ 0.06	≤ 0.06	≤ 0.06	≤ 0.06	≤ 0.06	≤ 0.06	≤ 0.06	≤ 0.06	<=0.5 ug ml-1	<=0.5 ug ml-1	<=0.5 ug ml-1	<=0.5 ug ml-1				
C[C@@H](O)[C@H]1C(=O)N2C(C(=O)O)=C(SCCNC=N)C[C@H]12 [IMIPENEM ANHYDROUS]	≤ 0.06	≤ 0.06	0.25 (≈ 0.835 µM)		≤ 0.06	0.06 (≈ 0.2 µM)	≤ 0.06	0.06 (≈ 0.2 µM)	<=4 ug ml-1	<=4 ug ml-1	<=4 ug ml-1	<=4 ug ml-1	<=4 ug ml-1	<=4 ug ml-1	<=4 ug ml-1	<=4 ug ml-1
C[C@H]1c2cccc(O)c2C(=O)C2=C(O)[C@]3(O)C(=O)C(C(N)=O)=C(O)[C@@H](N(C)C)[C@@H]3[C@@H](O)[C@@H]21.O [DOXYCYCLINE]	≤ 0.06	0.25	0.25	≤ 0.06	≤ 0.06				<=4 ug ml-1	<=4 ug ml-1	<=4 ug ml-1	<=4 ug ml-1				

More lines, main results first:

MIC [1] [µg/mL]	MIC50 [1] [µg/mL]	MIC90 [1] [µg/mL]	MIC [2] [µg/mL]	MIC [6] [µg/mL]	MIC50 [2] [µg/mL]	MIC90 [2] [µg/mL]	MIC [11] [µg/mL]	SMILES	Activity [3]	Activity [4]	Activity [5]	Activity [7]	Activity [8]	Activity [9]	Activity [10]	Activity [12]
0.125 (≈ 0.17 µM)	1 (≈ 1.36 µM)	2 (≈ 2.73 µM)	0.125 (≈ 0.17 µM)	0.125 (≈ 0.17 µM)				CC[C@H]1OC(=O)[C@H](C)[C@@H](O[C@H]2C[C@@](C)(OC)[C@@H](O)[C@H](C)O2)[C@H](C)[C@@H](O[C@@H]2O[C@H](C)C[C@H](N(C)C)[C@H]2O)[C@](C)(O)C[C@@H](C)C(=O)[C@H](C)[C@@H](O)[C@]1(C)O [ERYTHROMYCIN]	<=1 ug ml-1	<=1 ug ml-1	<=1 ug ml-1	<=1 ug ml-1				
1 (≈ 5.84 µM)	4 (≈ 23.4 µM)	8 (≈ 46.7 µM)	1 (≈ 5.84 µM)	1 (≈ 5.84 µM)	2 (≈ 11.7 µM)	8 (≈ 46.7 µM)	2 (≈ 11.7 µM)	Cc1ncc([N+](=O)[O-])n1CCO [METRONIDAZOLE]	<=2 ug ml-1	<=2 ug ml-1	<=2 ug ml-1	<=2 ug ml-1	<=8 ug ml-1	<=8 ug ml-1	<=8 ug ml-1	<=8 ug ml-1
≤ 0.06	0.25 (≈ 0.65 µM)	2 (≈ 5.2 µM)	≤ 0.06	≤ 0.06	≤ 0.06	0.5 (≈ 1.3 µM)	0.25 (≈ 0.65 µM)	CC1(C)S[C@@H]2[C@H](NC(=O)[C@H](C(=O)O)c3ccsc3)C(=O)N2[C@H]1C(=O)O [TICARCILLIN]	<=16 ug ml-1	<=16 ug ml-1	<=16 ug ml-1	<=16 ug ml-1	<=32 ug ml-1	<=32 ug ml-1	<=32 ug ml-1	<=32 ug ml-1
≤ 0.125	1 (≈ 1.93 µM)	16 (≈ 30.9 µM)		0.125 (≈ 0.242 µM)	0.125 (≈ 0.242 µM)	1 (≈ 1.93 µM)	0.125 (≈ 0.242 µM)	CCN1CCN(C(=O)N[C@@H](C(=O)N[C@@H]2C(=O)N3[C@@H]2SC(C)(C)[C@@H]3C(=O)O)c2ccccc2)C(=O)C1=O [PIPERACILLIN]	<=8 ug ml-1	<=8 ug ml-1	<=8 ug ml-1	<=8 ug ml-1	<=32 ug ml-1	<=32 ug ml-1	<=32 ug ml-1	<=32 ug ml-1
≤ 0.06	≤ 0.06	≤ 0.06	≤ 0.06	≤ 0.06	≤ 0.06	≤ 0.06	≤ 0.06	CC[C@H]1OC(=O)[C@H](C)C(=O)[C@H](C)[C@@H](O[C@@H]2O[C@H](C)C[C@H](N(C)C)[C@H]2O)[C@](C)(OC)C[C@@H](C)C(=O)[C@H](C)[C@H]2N(CCCCn3cnc(-c4cccnc4)c3)C(=O)O[C@]12C [TELITHROMYCIN]	<=0.5 ug ml-1	<=0.5 ug ml-1	<=0.5 ug ml-1	<=0.5 ug ml-1				
0.25 (≈ 0.631 µM)	0.5 (≈ 1.26 µM)	1 (≈ 2.52 µM)	0.25 (≈ 0.631 µM)	0.25 (≈ 0.631 µM)				CC(=O)OCC1=C(C(=O)O)N2C(=O)[C@@H](NC(=O)Cc3cccs3)[C@H]2SC1 [CEPHALOTHIN]	<=8 ug ml-1	<=8 ug ml-1	<=8 ug ml-1	<=8 ug ml-1				
≤ 0.06	≤ 0.06	0.06 (≈ 0.149 µM)	≤ 0.06	≤ 0.06	≤ 0.06	0.25 (≈ 0.623 µM)	≤ 0.06	COc1c(N2C[C@@H]3CCCN[C@@H]3C2)c(F)cc2c(=O)c(C(=O)O)cn(C3CC3)c12 [MOXIFLOXACIN]		<=1 ug ml-1		<=1 ug ml-1				
≤ 0.06	≤ 0.06	≤ 0.06	≤ 0.06	≤ 0.06	≤ 0.06	≤ 0.06	≤ 0.06	CC1(C)S[C@@H]2[C@H](NC(=O)[C@H](N)c3ccc(O)cc3)C(=O)N2[C@H]1C(=O)O [AMOXICILLIN]	<=0.5 ug ml-1	<=0.5 ug ml-1	<=0.5 ug ml-1	<=0.5 ug ml-1	<=0.5 ug ml-1	<=0.5 ug ml-1	<=0.5 ug ml-1	<=0.5 ug ml-1
